Results taken from patent US20240099299A1, “ANTIMICROBIAL COMPOSITIONS AND METHODS FOR THEIR PREPARATION AND USE IN TREATING PLANT DISEASES” (priority 2021, published 2024).
Structures can show the parent of a compound that is named as a salt.

Assays:
[1] = Uptake (injection time) of OTC solutions injected into rootstock of Valencia citrus trees; type: in vivo; conditions: for Absorption of solution by trees: overall conclusions from functional testing, nS-nPG-OTC: after the first 50 mL
Method: The test article solutions (11,000 ppm) were prepared as above and were fluidly pressurized into latex injection devices (FLexInect™, TJ Biotech LLC, Buffalo, SD) and then were injected into rootstock of uniform, commercially grown, Valencia citrus trees. The injection devices were monitored to measure uptake rates of the solutions.
Table 2 presents the results of Trial 1, which used trees (n=10) having trunk diameters between 2.125″ and 3.00″.
Table 3 presents the results of Trial 2, which used trees (n=10) having trunk diameters between 3.00″ and 4.25″. 100 mL of the test solutions were injected with the ambient temperature between 80° F. and 90° F.
Table 4 presents the results of Trial 3, which used trees (n=30) having trunk diameters between 3.00″ and 4.25″. Up to 100 mL of the test solutions were injected with the ambient temperature <70° F., at which temperatures transpiration in the vascular system is reduced. In this trial, the injections were stopped at 120 minutes regardless of if injections were complete.

[2] = Visual monitoring of homogeneity of 11,000 ppm OTC test solutions in pH 2 water; type: physicochemical; conditions: 11,000 ppm in pH 2 water, 10× magnification, immediately upon preparation at 75° F.; HCl
Method: Next, OTC solutions were prepared by first reducing the pH of water to pH 2 using hydrochloric acid. 11.0 g of PG-OTC (>95%) and non-sterile, nS-nPG-OTC (putatively 95%) each were dissolved into 1.0 L of the pH 2 water to generate 11,000 ppm test solutions, which then were monitored visually at 10× magnification. […] To elucidate the nonhomogeneous nature of the nS-nPG-OTC solutions, visualization was performed at 60× magnification, as is shown in FIG. 8 and wherein an abundance of actively growing needle-like crystals having lengths of approximately 10-250 μm are visible. These needle-like crystals likely comprise OTC and/or OTC and one or more impurities.

Valencia orange tree = assay: Study 1: comparison of injection and spray applications, tree vigor rating; type: in vivo; conditions: Study 1 conclusion
Method: Tree Vigor Ratings: 1=Lowest Vigor; 5=Highest Vigor. LSD stands for least significant difference and C.V. stands for Coefficient of Variance.
For Treatment 1, a 5,500 ppm solution of PG-OTC was prepared using distilled water. This solution then was acidified to pH 2 using hydrochloric acid. […] For Treatment 2, 2.5 g of PG-OTC was dissolved in 2 gallons of water. The resultant solution was sprayed onto the foliage of the trees at a rate of 1 quart (0.3125 g OTC·HCl) per tree (n=9). Vigor ratings were performed 60 days after application of treatments.

[3] = OTC residues in fruit after injection; type: in vivo; conditions: when using PG-OTC solutions

Row | Structure (SMILES) | Time (Minutes) of injection/uptake ([1]; Trial 1: 50 mL of 11,000 ppm solution, trunk diameter 2.125-3.00 in, 80-90° F., n=10) [a Minutes] | Time (Minutes) of injection/uptake ([1]; Trial 2: 100 mL of 11,000 ppm solution, trunk diameter 3.00-4.25 in, 80-90° F., n=10) [a Minutes] | Time (Minutes) of injection/uptake ([1]; Trial 3: up to 100 mL of 11,000 ppm solution, trunk diameter 3.00-4.25 in, <70° F., stopped at 120 minutes, n=30) [a Minutes] | Absorption of solution by trees [1] | Homogeneity of solution [2] | Time (Minutes) of injection/uptake ([1]; Trial 1: 50 mL of 11,000 ppm solution, trunk diameter 2.125-3.00 in, 80-90° F., n=10, HCl) [b Minutes] | Time (Minutes) of injection/uptake ([1]; Trial 2: 100 mL of 11,000 ppm solution, trunk diameter 3.00-4.25 in, 80-90° F., n=10, HCl) [b Minutes] | Time (Minutes) of injection/uptake ([1]; Trial 3: up to 100 mL of 11,000 ppm solution, trunk diameter 3.00-4.25 in, <70° F., stopped at 120 minutes, n=30, HCl) [b Minutes] | Absorption of solution by trees ([1]; HCl) | Effectiveness of trunk injection versus application of unacidified solution to foliage by spraying (Valencia orange tree) | Residues in the fruit (within tolerance) [3] [PPB]
1 | CN(C)[C@@H]1C(O)=C(C(N)=O)C(=O)[C@@]2(O)C(O)=C3C(=O)c4c(O)cccc4[C@@](C)(O)[C@H]3[C@H](O)[C@@H]12 [nS-nPG-OTC, Oxytetracycline] | 15.3 | 134.7 | 117.33 | marked decrease in absorption rate |  |  |  |  |  |  | 
2 | CN(C)[C@@H]1C(O)=C(C(N)=O)C(=O)[C@@]2(O)C(O)=C3C(=O)c4c(O)cccc4[C@@](C)(O)[C@H]3[C@H](O)[C@@H]12 [PG-OTC, Oxytetracycline HCl] |  |  |  |  | essentially homogeneous | 8.4 | 18.2 | 81.1 | readily absorbed | more effective | ≤ 10
